Read-outs that look alike come from different tables or passages of the source.
Tests used:
[1] = system: Zucker diabetic fatty (ZDF) rats; assay: ZDF rats, comparison to rosiglitazone and metformin: blood glucose, HbA1c, meal tolerance, body weight; assay type: in vivo, rat; conditions: for HbA1c: end of study (5 weeks), saline ZDF 9.2%, lean 5.5
Experimental: A saline treated group of lean rats was also included in the study. Treatment with all drugs was initiated before the rats became frankly diabetic, which occurs at about 8 weeks of age. Plasma glucose levels were measured 3 and 5 weeks after treatment initiation. Body weight was measured once every week; in addition, HbA1c levels were measured at the end of the study by HPLC. A meal tolerance test was also performed after 4 weeks of treatment.
At the end of 5 weeks, some rats were sacrificed and the liver and epididymal fat pads were removed. The rest of the animals (n=4/group) were examined for changes in plasma glucose levels after cessation of treatment. Glucose measurements during the recovery phase were made 10 days and 5 weeks after stopping treatment. Tissue extracts were subjected to Western blot analysis to measure changes in PTP1B protein levels.

[2] = system: Zucker Diabetic Fatty Rats; assay: Combination of ISIS 113715 and metformin in ZDF rats: plasma glucose (Table 18); assay type: in vivo, rat
Experimental: 500 mg/kg is the maximally effective dose that can be tolerated by these rats. Plasma glucose was measured at week 0 (before treatment) and after weeks 1, 2 and 4 of treatment.

[3] = Metformin combination in ZDF rats: hypoglycemia, AST/ALT, lipids, plasma lactate; assay type: in vivo, rat; conditions: after 4 weeks of treatment
Experimental: 500 mg/kg is the maximally effective dose that can be tolerated by these rats.
There was no significant change in AST/ALT, plasma triglyceride or plasma cholesterol levels in any animal group. Because of the risk of lactic acidosis associated with metformin treatment, plasma lactate levels were measured.

[4] = system: Zucker diabetic fatty (ZDF) rats; assay: ZDF rats, comparison to rosiglitazone and metformin: blood glucose, HbA1c, meal tolerance, body weight; assay type: in vivo, rat; conditions: 31 day washout after 5 weeks of treatment
[5] = AST/ALT and plasma cholesterol in aged ZDF rats; conditions: weeks 1, 2, 3, 4 and 5
[6] = system: Zucker diabetic fatty (ZDF) rats; assay: Fed plasma glucose in Zucker diabetic fatty (ZDF) rats; assay type: in vivo, rat; conditions: 25 mg/kg ip two times per week
From the text: The leptin receptor deficient Zucker diabetic fatty (ZDF) rat is another useful model for the investigation of type 2 diabetes. Diabetes develops spontaneously in these male rats at ages 8-10 weeks, and is associated with hyperphagia, polyuria, polydipsia, and impaired weight gain, symptoms which parallel the clinical symptoms of diabetes (Phillips M S, et al., 1996, Nat Genet 13, 18-19).
(§1) ZDF/GmiCrl-fa/fa (ZDF) male rats were purchased from Charles River Laboratories (Wilmington, Mass., USA). Six week old ZDF male rats were injected intraperitoneally with oligonucleotides at a dose of 25 mg/kg two times per week for four weeks. […] Saline-injected animals also serve as controls.

[7] = system: Zucker diabetic fatty (ZDF) rats; assay: Intraperitoneal glucose tolerance test (IPGTT) in ZDF rats; assay type: in vivo, rat; conditions: for Blood glucose after IPGTT (± SEM) / Insulin excursion after IPGTT (± SEM): 25 mg/kg ip twice weekly
Experimental: as §1
An intraperitoneal glucose tolerance test (IPGTT) was also performed. Rats received intraperitoneal injections of glucose, and the blood glucose and insulin levels are measured before the glucose challenge and at intervals over 2 hours. The blood glucose levels (in mg/dL) are shown below in Table 1:
The blood glucose levels shown in Table 1 were graphed over time and the area under the curve (AUC) is calculated. A smaller AUC for glucose (smaller blood glucose excursion after glucose challenge) indicates better glucose tolerance. Glucose excursion (AUC) for saline-treated rats was approximately 72,000; for negative control ISIS 141923-treated rats, approximately 80,000, for ISIS 113715-treated rats, approximately 60,000 and for ISIS 106425-treated rats, approximately 63,000.

PTP1B protein = PTP1B protein levels in ZDF rats (Western blot); assay type: in vivo, rat; conditions: 25 mg/kg ip twice weekly four weeks
Experimental: as §1
PTP1B protein levels were measured by Western blot analysis.

PTP1B = PTP1B protein in HEPG2 cells (Western blot); assay type: cell-based, human; conditions: 150 nM, vs no oligo treatment
Experimental: (§2) There is a high degree of homology between PTP1B and T-cell phosphatase (TC-PTPase, PTPN2), particularly in the catalytic domain. This may present problems in design of small molecule drugs specific for PTP1B. […] HEPG2 human hepatocellular liver carcinoma cells (ATCC, Manassas Va.) are routinely maintained in minimum essential medium (Eagle) with 2 mM L-glutamine and Earle's BSS adjusted to contain 1.5 g/L sodium bicarbonate, 0.1 mM non-essential amino acids, and 1.0 mM sodium pyruvate, […]; fetal bovine serum.
(§3) Levels of PTP1B and TC-PTPase protein were measured by Western blot using mouse monoclonal antibodies to PTP1B (AB-1) and TC-PTPase (AB-1) (CalBiochem/Oncogene sciences, EMD Biosciences, Inc., San Diego Calif.), which specifically identified human target proteins and were used at 0.25 ug/ml. Results were expressed as percent of control (no oligo treatment).

TC-PTPase = TC-PTPase protein in HEPG2 cells (Western blot), specificity; assay type: cell-based, human; conditions: 150 nM, vs no oligo treatment
Experimental: as §2, §3

[8] = rat, in vivo
[9] = 10 day washout after 5 weeks of treatment
[10] = Week 3 of dosing, ISIS 113715 50 mg/kg/week ip, rosiglitazone 10 mg/kg/day, metformin 800 mg/kg/day orally

Compound: CN(C)C(=N)N=C(N)N [Metformin]
- Body weight after treatment ([1]; 5 weeks): remained unchanged
- Blood glucose (approx.) [1, 9]: ~305 mg/dL
- Blood glucose (approx.) ([1]; Pre-treatment): ~135 mg/dL
- Blood glucose (approx.) [1, 10]: ~180 mg/dL
- HbA1c [1]: 6.1%
- Effect on blood glucose over the study (in words) ([2]; ISIS 113715 12.5 mg/kg ip twice a week, metformin 100, 300 or 500 mg/kg per day, four weeks): lost over time
- Plasma glucose mg/dL ± SEM ([2]; metformin alone 100 mg/kg per day oral gavage, Week 0 (before treatment)): 256 ± 29 mg/dL
- Plasma glucose mg/dL ± SEM ([2]; metformin alone 100 mg/kg per day oral gavage, Week 1): 428 ± 20 mg/dL
- Plasma glucose mg/dL ± SEM ([2]; metformin alone 100 mg/kg per day oral gavage, Week 2): 504 ± 20 mg/dL
- Plasma glucose mg/dL ± SEM ([2]; metformin alone 100 mg/kg per day oral gavage, Week 3): 494 ± 18 mg/dL
- Plasma glucose mg/dL ± SEM ([2]; metformin alone 100 mg/kg per day oral gavage, Week 4): 393 ± 71 mg/dL
- Plasma glucose mg/dL ± SEM ([2]; metformin alone 300 mg/kg per day oral gavage, Week 0 (before treatment)): 251 ± 27 mg/dL
- Plasma glucose mg/dL ± SEM ([2]; metformin alone 300 mg/kg per day oral gavage, Week 1): 323 ± 33 mg/dL
- Plasma glucose mg/dL ± SEM ([2]; metformin alone 300 mg/kg per day oral gavage, Week 2): 415 ± 29 mg/dL
- Plasma glucose mg/dL ± SEM ([2]; metformin alone 300 mg/kg per day oral gavage, Week 3): 449 ± 11 mg/dL
- Plasma glucose mg/dL ± SEM ([2]; metformin alone 300 mg/kg per day oral gavage, Week 4): 448 ± 42 mg/dL
- Plasma glucose mg/dL ± SEM ([2]; metformin alone 500 mg/kg per day oral gavage, Week 0 (before treatment)): 252 ± 28 mg/dL
- Plasma glucose mg/dL ± SEM ([2]; metformin alone 500 mg/kg per day oral gavage, Week 1): 244 ± 56 mg/dL
- Plasma glucose mg/dL ± SEM ([2]; metformin alone 500 mg/kg per day oral gavage, Week 2): 344 ± 59 mg/dL
- Plasma glucose mg/dL ± SEM ([2]; metformin alone 500 mg/kg per day oral gavage, Week 3): 374 ± 53 mg/dL
- Plasma glucose mg/dL ± SEM ([2]; metformin alone 500 mg/kg per day oral gavage, Week 4): 443 ± 35 mg/dL
- Plasma lactate levels [3]: dose-dependent increase in lactate
- Blood glucose (approx.) [4]: ~330 mg/dL

Compound: CN(CCOc1ccc(CC2SC(=O)NC2=O)cc1)c1ccccn1 (centres unmarked) [Rosiglitazone]
- Blood glucose (approx.) [1, 9]: ~260 mg/dL
- Blood glucose (approx.) ([1]; Pre-treatment): ~140 mg/dL
- Blood glucose (approx.) [1, 10]: ~110 mg/dL
- HbA1c [1]: 5.4%
- Blood glucose (approx.) [4]: ~270 mg/dL
- Plasma cholesterol levels [5]: no significant effects

Compound: ISIS 141923: CCTTCCCTGAAGGTTCCTCC (SEQ ID NO: 20), six-mismatch control of ISIS 113715, negative oligonucleotide control (chemistry not given here)
- Fed plasma glucose levels ([6]; week 0): approximately 306±59 mg/dL
- Fed plasma glucose levels ([6]; week 1): ~391 ± 35 mg/dL
- Fed plasma glucose levels ([6]; week 2): ~402 ± 37 mg/dL
- Fed plasma glucose levels ([6]; week 3): ~411 ± 27 mg/dL
- Fed plasma glucose levels ([6]; week 4): ~392 ± 11 mg/dL
- Blood glucose after IPGTT (± SEM) ([7]; 0 min): 330 ± 39 mg/dL
- Insulin excursion after IPGTT (± SEM) ([7]; 0 min): 2.2 ± .30 ng/mL
- Blood glucose after IPGTT (± SEM) ([7]; 5 min): 543 ± 43 mg/dL
- Insulin excursion after IPGTT (± SEM) ([7]; 5 min): 2.3 ± .84 ng/mL
- Blood glucose after IPGTT (± SEM) ([7]; 15 min): 703 ± 60 mg/dL
- Insulin excursion after IPGTT (± SEM) ([7]; 15 min): 4.0 ± .22 ng/mL
- Blood glucose after IPGTT (± SEM) ([7]; 30 min): 791 ± 52 mg/dL
- Insulin excursion after IPGTT (± SEM) ([7]; 30 min): 4.2 ± .37 ng/mL
- Blood glucose after IPGTT (± SEM) ([7]; 60 min): 705 ± 51 mg/dL
- Insulin excursion after IPGTT (± SEM) ([7]; 60 min): 2.4 ± .66 ng/mL
- Blood glucose after IPGTT (± SEM) ([7]; 120 min): 594 ± 28 mg/dL
- Insulin excursion after IPGTT (± SEM) ([7]; 120 min): 1.7 ± .60 ng/mL
- Insulin AUC after IPGTT ([7]; saline approximately 300): ~320
- Glucose excursion (AUC) after IPGTT ([7]; saline approximately 72,000): approximately 80,000
- PTP1B protein levels, decrease vs saline-treated animals (PTP1B protein): 10%
- Reduction of PTP1B protein levels (PTP1B): reduced neither PTP1B nor TC-PTPase levels
- Reduction of TC-PTPase levels (TC-PTPase): reduced neither PTP1B nor TC-PTPase levels
- AST/ALT [8]: no significant effects
- Plasma cholesterol levels [8]: no significant effects
